# Measurements taken from article PMC6333442, “Conserved allosteric pathways for activation of TRPV3 revealed through engineering vanilloid-sensitivity” (eLife, 2019).
# Several values for one entry are separate records, joined by “and”; a condition that tells them apart may be missing. Equal values may be shown once.
# How the values were obtained:
# [1] = tested on: TRPV3-6M + I595L, K611D, L635F, L639M or Y650F; test: Two-electrode voltage clamp, TRPV3-6M with individual pore mutations (weak RTx responders); format: cell-based, mouse; conditions: RTx 100 nM, room temperature; smaller than responses to 2-APB
# Protocol: (§1) All channel constructs were expressed in Xenopus laevis oocytes and studied using the two-electrode voltage clamp technique (TEVC) following 1–4 days of incubation after cRNA injection. The animal care and experimental procedures were performed in accordance with the Guide for the Care and Use of Laboratory Animals and were approved by the Animal Care and Use Committee of the National Institute of Neurological Disorders and Stroke (Animal protocol number 1253–17). Oocytes were removed surgically and incubated with agitation for 1 hr in a solution containing (in mM) 82.5 NaCl, 2.5 KCl, 1 MgCl2, 5 HEPES, pH 7.6 (with NaOH), and collagenase (2 mg/ml; Worthington Biochemical, Lakewood, NJ). Defolliculated oocytes were injected with cRNA for each of the constructs and incubated at 17°C in a solution containing (in mM) 96 NaCl, 2 KCl, 1 MgCl2, 1.8 CaCl2, 5 HEPES, pH 7.6 (with NaOH), and gentamicin (50 μg/ml, GIBCO-BRL, Gaithersburg, MD). Oocyte membrane voltage was controlled using an OC-725C oocyte clamp (Warner Instruments, Hamden, CT). Data were filtered at 1–3 kHz and digitized at 20 kHz using pClamp software (Molecular Devices, Sunnyvale, CA) and a Digidata 1440A digitizer (Axon Instruments). Microelectrode resistances were 0.1–1 MΩ when filled with 3 M KCl. For recording TRP channel currents, the external recording solution contained (in mM) 100 KCl, 10 HEPES, pH 7.6 (with KOH). […]
# [2] = target: T1, TRPV3-6M + V587L (Mus musculus, UniProt Q8K424, A560T/F522S/H523E/L557M/Q580E/V587L/W521Y); test: Two-electrode voltage clamp, TRPV3-6M + V587L, RTx concentrations; format: cell-based
# T1 construct: expressed in transfected cells; host or cells: Xenopus laevis oocytes
# T1 sequence (Q8K424 1-791 W521Y/F522S/H523E/L557M/A560T/Q580E/V587L): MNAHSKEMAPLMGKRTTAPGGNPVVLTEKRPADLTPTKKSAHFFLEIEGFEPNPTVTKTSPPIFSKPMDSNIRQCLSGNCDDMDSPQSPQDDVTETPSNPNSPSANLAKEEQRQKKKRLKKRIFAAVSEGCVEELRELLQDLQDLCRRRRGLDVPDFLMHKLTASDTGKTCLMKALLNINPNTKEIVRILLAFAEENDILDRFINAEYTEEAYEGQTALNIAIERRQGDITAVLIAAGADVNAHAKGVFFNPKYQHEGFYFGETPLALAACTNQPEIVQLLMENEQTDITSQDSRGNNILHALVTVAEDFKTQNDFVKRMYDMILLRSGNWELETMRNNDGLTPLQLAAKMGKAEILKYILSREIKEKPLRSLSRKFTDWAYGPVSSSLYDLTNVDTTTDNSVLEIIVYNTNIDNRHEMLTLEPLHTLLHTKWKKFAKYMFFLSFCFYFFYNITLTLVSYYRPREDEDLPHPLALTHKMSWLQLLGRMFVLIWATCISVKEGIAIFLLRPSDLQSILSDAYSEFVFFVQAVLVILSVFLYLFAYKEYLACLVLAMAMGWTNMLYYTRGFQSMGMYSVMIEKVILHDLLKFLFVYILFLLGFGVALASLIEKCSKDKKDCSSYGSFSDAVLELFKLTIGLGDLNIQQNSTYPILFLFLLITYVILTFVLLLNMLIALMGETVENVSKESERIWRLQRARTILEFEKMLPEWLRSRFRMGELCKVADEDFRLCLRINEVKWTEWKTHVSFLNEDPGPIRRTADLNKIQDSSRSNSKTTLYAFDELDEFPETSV
# Protocol: as §1
# [3] = tested on: TRPV1; design: method as in Zhang et al., 2016; conditions: ref Zhang et al., 2016; cited from earlier work
# [4] = target: TRPV3-4PM (Mus musculus, UniProt Q8K424, F625L/F656I/F666Y/V587L)
# Chain of TRPV3-4PM (Q8K424 whole entry V587L/F625L/F656I/F666Y): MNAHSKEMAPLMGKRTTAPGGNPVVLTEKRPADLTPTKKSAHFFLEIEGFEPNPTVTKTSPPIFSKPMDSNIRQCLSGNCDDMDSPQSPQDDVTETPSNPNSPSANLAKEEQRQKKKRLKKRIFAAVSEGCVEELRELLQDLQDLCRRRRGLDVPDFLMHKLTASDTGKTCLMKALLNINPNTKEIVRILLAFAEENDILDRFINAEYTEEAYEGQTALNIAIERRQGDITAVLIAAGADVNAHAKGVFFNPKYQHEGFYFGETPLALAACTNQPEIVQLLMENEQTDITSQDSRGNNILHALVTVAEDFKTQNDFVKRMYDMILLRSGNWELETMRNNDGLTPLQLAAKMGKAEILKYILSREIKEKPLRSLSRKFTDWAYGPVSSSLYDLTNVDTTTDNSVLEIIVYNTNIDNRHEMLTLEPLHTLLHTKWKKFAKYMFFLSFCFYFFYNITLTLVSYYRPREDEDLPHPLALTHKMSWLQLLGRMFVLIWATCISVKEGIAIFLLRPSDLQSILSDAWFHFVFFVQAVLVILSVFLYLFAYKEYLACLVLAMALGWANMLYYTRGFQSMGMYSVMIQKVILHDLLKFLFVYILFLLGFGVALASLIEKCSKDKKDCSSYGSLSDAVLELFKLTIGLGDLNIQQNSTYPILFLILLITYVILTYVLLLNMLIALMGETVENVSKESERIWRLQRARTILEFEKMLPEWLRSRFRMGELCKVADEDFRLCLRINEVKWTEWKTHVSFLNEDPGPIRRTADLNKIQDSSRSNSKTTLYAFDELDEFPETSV
# Protocol: (§2) All channel constructs were expressed in Xenopus laevis oocytes and studied using the two-electrode voltage clamp technique (TEVC) following 1–4 days of incubation after cRNA injection. The animal care and experimental procedures were performed in accordance with the Guide for the Care and Use of Laboratory Animals and were approved by the Animal Care and Use Committee of the National Institute of Neurological Disorders and Stroke (Animal protocol number 1253–17). Oocytes were removed surgically and incubated with agitation for 1 hr in a solution containing (in mM) 82.5 NaCl, 2.5 KCl, 1 MgCl2, 5 HEPES, pH 7.6 (with NaOH), and collagenase (2 mg/ml; Worthington Biochemical, Lakewood, NJ). Defolliculated oocytes were injected with cRNA for each of the constructs and incubated at 17°C in a solution containing (in mM) 96 NaCl, 2 KCl, 1 MgCl2, 1.8 CaCl2, 5 HEPES, pH 7.6 (with NaOH), and gentamicin (50 μg/ml, GIBCO-BRL, Gaithersburg, MD). Oocyte membrane voltage was controlled using an OC-725C oocyte clamp (Warner Instruments, Hamden, CT). Data were filtered at 1–3 kHz and digitized at 20 kHz using pClamp software (Molecular Devices, Sunnyvale, CA) and a Digidata 1440A digitizer (Axon Instruments). Microelectrode resistances were 0.1–1 MΩ when filled with 3 M KCl. For recording TRP channel currents, the external recording solution contained (in mM) 100 KCl, 10 HEPES, pH 7.6 (with KOH). Experiments were performed at room temperature (~22°C), except as indicated otherwise. […] Current time courses were obtained by stepping membrane voltage every 2 s from a holding potential of 0 mV to either −60 or +60 mV for 100 ms, and plotting the mean steady-state current at the end of each voltage step as a function of total recording time. I-V relations were obtained similarly, but voltage was stepped every 2 s to a different value, in 10 mV increments and starting at −60 mV.
# [5] = target: TRPV3-A606V (Mus musculus, UniProt Q8K424, A606V)
# Chain of TRPV3-A606V (Q8K424 whole entry A606V): as the sequence (Q8K424 whole entry V587L/F625L/F656I/F666Y) above, with L587V, A606V, L625F, I656F, Y666F counted along it
# Protocol: as §2
# [6] = target: TRPV3-V587L (Mus musculus, UniProt Q8K424, V587L); conditions: -60 mV
# Chain of TRPV3-V587L (Q8K424 whole entry V587L): as the sequence (Q8K424 whole entry V587L/F625L/F656I/F666Y) above, with L625F, I656F, Y666F counted along it
# Protocol: as §2
# [7] = tested on: TRPV3-4M/V2P; test: Two-electrode voltage clamp, TRPV3-4M/V2P chimera in oocytes; format: cell-based, mouse; conditions: RTx 100 nM, 2-APB 3 mM, room temperature, ±60 mV
# Protocol: as §1
smiles,measurement,setting,value
"C=C(C)[C@]12C[C@@H](C)[C@@]34O[C@](Cc5ccccc5)(O[C@@H]1[C@@H]3C=C(COC(=O)Cc1ccc(O)c(OC)c1)C[C@]1(O)C(=O)C(C)=C[C@@H]41)O2 [RTx, resiniferatoxin]",channel activation (current response),[1],detectable responses
same,dissociation of RTx,[2],exceedingly slow
same,saturating concentration of RTx,[3],100 nM
"NCCOB(c1ccccc1)c1ccccc1 [2-APB, 2-aminoethoxydiphenyl borate]","s (slope) of Hill fit, 2-APB concentration-response",[4]; -60 mV,1.84
same,shift in the apparent affinity for 2-APB,[4]; relative to WT TRPV3,~ 2 fold and 2 fold
same,"s (slope) of Hill fit, 2-APB concentration-response",[5]; -60 mV,2.72
same,EC50,"[5]; read-out: apparent affinity (EC50) for activation by 2-APB, -60 mV, room temperature, Hill fit",132 ± 7 µM
same,increase in the apparent affinity for 2-APB,[5]; relative to WT TRPV3,~ 3.5 fold and 3.5 fold
same,"s (slope) of Hill fit, 2-APB concentration-response",[6],2.28
same,EC50,"[6]; read-out: apparent affinity (EC50) for activation by 2-APB, room temperature, Hill fit",443 ± 13 µM
same,channel activation (current response),[7],could be activated
